The results in this text go back to US20110224182A1, “SALTS OF (3-0-(3',3'-[…]) BETULINIC ACID AND SOLID STATE FORMS THEREOF” (Myriad Pharmaceuticals, Incorporated, priority 2007, published 2011).

A word on the Cmax: it is the peak of the concentration-time curve. A word on the Tmax: it is the time from dosing to the highest level. Usually solubility stands for the concentration that dissolves in the medium under given conditions.

The nature of data set [1]: In vivo pharmacokinetic studies (Method H), plasma levels by LC-MS/MS. Details: species or system male Sprague-Dawley rats. The settings on record: rat; for Mean plasma concentration: as free drug. As for the experimental part: Method H—In Vivo Pharmacokinetic Studies
In vivo experiments were conducted in male Sprague-Dawley rats having a body mass of 225 g to 275 g with an appropriate cannula surgically inserted. Rats were supplied food and water ad libitum until 12 hours before dosing when food was removed. Food was withheld until four hours post-dosing. Water was available ad libitum. Each of group of rats consisted of 3 rats.
Dosing solutions were prepared the same day as dose administration. […] The administered dose of each salt was 1 mg/kg for intravenous administration and 10 mg/kg for oral gavage. Formulations for intravenous administration were filtered after preparation. Concentrations of respective dosing solutions were as depicted in Table 1 below.
Sampling was performed at predose, 2, 5, 15, and 30 minutes, 1, 2, 4, and 8 hours post dose. Blood samples were collected, placed into chilled tubes containing sodium heparin, and kept chilled until centrifuged at 4° C. at 13,000 rpm for 5 minutes. Plasma was separated and stored at −60° C. to −80° C. until analyzed.
Plasma levels of the compounds were determined by LC-MS/MS. Quantification of the compounds in plasma was performed against a calibration curve generated by serial dilution of a test article DMSO stock solution into blank heparinized rat plasma (50, 100, 200, 500, 1,000, 2,000, 5,000, and 10,000 ng/mL final concentrations of free drug). Quality control samples were prepared in the same fashion (250, 1,000, and 5,000 ng/mL final concentrations of free drug). The standard curve and quality control DMSO stock solutions were derived from independent weightings.
Plasma concentrations versus time data are plotted in FIGS. 26 through 37.
All data are expressed as ng/mL of the free drug. Samples that were below the limit of quantification (“bloq”) were assigned a value of zero for the mean concentration calculations.

Data set [2] in a line: Solubility (Method B): solvent added in portions until a clear solution is obtained. Format: physicochemical. The following applies: ambient temperature. As for the experimental part:
Method B-Solubility Measurement of the water solubility of the salts of this invention is accomplished by using methods well known to those skilled in the art. Specifically, to a weighed amount of DSB (+)-[…], DSB choline […], DSB diethanolamine […], or DSB diethylamine […], a solvent is added in small portions until a clear solution is obtained. The total volume of the solution is measured. The solubility of the particular DSB salt, in mg/mL, is calculated by dividing the weight of the salt (in mg), by the volume of the solution (in mL).

Setting [3] is: oral gavage 10 mg/kg, 0.083 h post dose.
[4] abbreviates: oral gavage 10 mg/kg, 0.25 h post dose.
[5] abbreviates: oral gavage 10 mg/kg, 0.5 h post dose.
The mark [6] stands for this setting: oral gavage 10 mg/kg, 1 h post dose.
Setting [7] is: oral gavage 10 mg/kg, 2 h post dose.
Where [8] appears, read: oral gavage 10 mg/kg, 4 h post dose.
Setting [9] is: oral gavage 10 mg/kg, 8 h post dose.
Setting [10] is: oral gavage 10 mg/kg, relative to DSB-2 NMG intravenous.

In brackets after ≈: the same amount, converted by molar mass. Where two headings read alike, the source gives them in different places.

For `C=C(C)[C@@H]1CC[C@]2(C(=O)O)CC[C@]3(C)[C@H](CC[C@@H]4[C@@]5(C)CC[C@H](OC(=O)CC(C)(C)C(=O)O)C(C)(C)[C@@H]5CC[C@]43C)[C@@H]12.CNC[C@H](O)[C@@H](O)[C@H](O)[C@H](O)CO.CNC[C@H](O)[C@@H](O)[C@H](O)[C@H](O)CO` [DSB-2 NMG, reference compound], the “% Bioavailability” value in data set [1] (intravenous 1 mg/kg (reference)) is recorded as 100.0%; in data set [1] (setting [10]), 26.2%. Also, the AUC24 h in data set [1] (intravenous 1 mg/kg, mean) came to 6890.6 ng·h/mL; in data set [1] (oral gavage 10 mg/kg, mean) it was 18041.1 ng·h/mL. The Cmax was found to be 13785.9 ng/mL in data set [1] (intravenous 1 mg/kg, mean) and 4480.0 ng/mL in data set [1] (oral gavage 10 mg/kg, mean). Besides, the Tmax in data set [1] (intravenous 1 mg/kg, mean) amounted to 0 min; in data set [1] (oral gavage 10 mg/kg, mean) it was 96 min. The Mean plasma concentration in data set [1] (setting [3]) is recorded as 491.0 ng/mL; in data set [1] (setting [4]), 3706.7 ng/mL; in data set [1] (setting [5]) it was 3246.7 ng/mL; in data set [1] (setting [6]), 3236.7 ng/mL; in data set [1] (setting [7]), 1973.7 ng/mL; in data set [1] (setting [8]), 1662.3 ng/mL. The Mean plasma concentration in data set [1] (setting [9]) worked out at 635.7 ng/mL.

Turning to `C=C(C)[C@@H]1CC[C@]2(C(=O)O)CC[C@]3(C)[C@H](CC[C@@H]4[C@@]5(C)CC[C@H](OC(=O)CC(C)(C)C(=O)O)C(C)(C)[C@@H]5CC[C@]43C)[C@@H]12.OCCNCCO.OCCNCCO` [DSB-2 Diethanolamine, diethanolamine disalt of DSB], the Mean plasma concentration in data set [1] (setting [3]) turned out to be 880.7 ng/mL; in data set [1] (setting [4]), 5190.0 ng/mL; in data set [1] (setting [5]) it was 5743.3 ng/mL; in data set [1] (setting [6]) it was 5873.3 ng/mL; in data set [1] (setting [7]), 4730.0 ng/mL; in data set [1] (setting [8]), 1830.0 ng/mL. Besides, the Mean plasma concentration in data set [1] (setting [9]) was 1149.3 ng/mL. Moreover, in data set [1] (oral gavage 10 mg/kg, mean), the AUC24 h worked out at 30958.7 ng·h/mL. Besides, in data set [1] (oral gavage 10 mg/kg, mean), the Cmax is recorded as 6720.0 ng/mL. Moreover, in data set [1] (oral gavage 10 mg/kg, mean), the Tmax stood at 72 min. For the same compound, the “% Bioavailability” value in data set [1] (setting [10]) is listed as 44.9%.

As for `C=C(C)[C@@H]1CC[C@]2(C(=O)O)CC[C@]3(C)[C@H](CC[C@@H]4[C@@]5(C)CC[C@H](OC(=O)CC(C)(C)C(=O)O)C(C)(C)[C@@H]5CC[C@]43C)[C@@H]12` [DSB Free Acid, 3-O-(3′,3′-dimethylsuccinyl)betulinic acid], the solubility in data set [2] (1-propanol, organic solvent or mixture, thermodynamic from solid, 1-propanol, read-out: Solubility in 1-propanol) amounted to 6000 µg/mL (≈ 10.3 mM); in data set [2] (2,2,2-trifluoroethanol, organic solvent or mixture, thermodynamic from solid, 2,2,2-trifluoroethanol, read-out: Solubility in 2,2,2-trifluoroethanol) it was 2500 µg/mL (≈ 4.27 mM); in data set [2] (2-propanol, organic solvent or mixture, thermodynamic from solid, 2-propanol, read-out: Solubility in 2-propanol) it was 6000 µg/mL (≈ 10.3 mM); in data set [2] (ethanol, organic solvent or mixture, thermodynamic from solid, ethanol, read-out: Solubility in ethanol) it was 15000 µg/mL (≈ 25.6 mM); in data set [2] (methanol, organic solvent or mixture, thermodynamic from solid, methanol, read-out: Solubility in methanol) it was 7500 µg/mL (≈ 12.8 mM); in data set [2] (water, thermodynamic from solid, water, read-out: Solubility in water), 350 µg/mL (≈ 0.598 mM).

With “3-O-(3′,3′-dimethylsuccinyl)betulinic acid, bis-diethylamine salt [DSB-2 Diethylamine]”, the Mean plasma concentration in data set [1] (setting [3]) was 352.7 ng/mL; in data set [1] (setting [4]) it was 4576.7 ng/mL; in data set [1] (setting [5]), 7420.0 ng/mL; in data set [1] (setting [6]) it was 6873.3 ng/mL; in data set [1] (setting [7]) it was 3750.0 ng/mL; in data set [1] (setting [8]), 1886.7 ng/mL. Besides, the Mean plasma concentration in data set [1] (setting [9]) came out at 233.7 ng/mL. For the same compound, the AUC24 h in data set [1] (oral gavage 10 mg/kg, mean) is 21172.3 ng·h/mL. The compound further came in with a Cmax in data set [1] (oral gavage 10 mg/kg, mean) of 7453.3 ng/mL. Also, the Tmax in data set [1] (oral gavage 10 mg/kg, mean) came out at 40.2 min. Besides, in data set [1] (setting [10]), the “% Bioavailability” value is listed as 30.7%.

Regarding “bis-(+)-arginine salt of DSB [DSB-2 (+)-Arginine]”, the Mean plasma concentration in data set [1] (setting [3]) came out at 2003.3 ng/mL; in data set [1] (setting [4]), 6796.7 ng/mL; in data set [1] (setting [5]), 6140.0 ng/mL; in data set [1] (setting [6]) it was 5793.3 ng/mL; in data set [1] (setting [7]), 4590.0 ng/mL; in data set [1] (setting [8]) it was 1615.3 ng/mL. Besides, in data set [1] (setting [9]), the Mean plasma concentration is on record as 532.3 ng/mL. The same compound returned an AUC24 h in data set [1] (oral gavage 10 mg/kg, mean) of 24342.9 ng·h/mL. The compound further returned a Cmax in data set [1] (oral gavage 10 mg/kg, mean) of 7093.3 ng/mL. Moreover, the Tmax in data set [1] (oral gavage 10 mg/kg, mean) was 19.8 min. Further, in data set [1] (setting [10]), the “% Bioavailability” value is 35.3%.

As for bis-choline salt of DSB [DSB-2 Choline], in data set [1] (in vivo, 10 mg/kg), the “% Bioavailability” value is recorded as 30.3%. The compound also registered an AUC24 h in data set [1] (in vivo, po, 10 mg/kg) of 20872.2 ng·h/mL.
